# Results published in article PMC10973027 (Molecular Imaging and Biology, 2023).
# Values joined by “and” are separate entries in the source; they are usually repeats but may differ in a detail not shown here. Equal values may be shown once. “Also recorded” adds a separate entry of the source.
# Tests used:
# [1] = Phase 1 PET-CT brain biodistribution study TM0017 (VT, K1, k2); type: in vivo, human
# Experimental: A sample size of 2–10 participants was considered sufficient to meet the objectives, whilst limiting radiation exposure.
# The preparation of radiopharmaceuticals and execution of PET-CT scans was performed by radiochemists, physicians, and technologists of Invicro (London, UK). Following local anesthesia, a catheter was inserted into the radial artery by an experienced physician; two venous catheters were also inserted. […] Upon administration, dynamic scanning started immediately and continued for 90 min.
# Arterial input function data were acquired and processed for all PET scans.
# Anatomical regions of interest (ROI) were defined via nonlinear deformation of a template MR image and associated neuroanatomical atlas, to match individual participants’ MR images. These ROI included, but were not limited to: parietal lobe, occipital lobe, frontal lobe, temporal lobe, striatum, cerebellum, thalamus, and the brain stem. Participants’ PET images were registered to their MR images, enabling the individualized ROI to be applied to the dynamic emission data to generate regional time activity curves (TACs). For additional information on the generation of regional TACs, see the electronic supplement.
# Phase 1 PET Study in Healthy Male Participants (TM0017)
# The TAC and total plasma data were fitted to a single compartment model to determine the influx and efflux constants K1 and k2. Because the plasma free fraction estimate is imprecise, we elected to fit the model using the total (free and bound) arterial concentration input function. The parameters of this model are related to the analogous parameters which would be estimated using an accurate estimate of the free arterial concentration using the equations below. We were able therefore to determine and present the K1 and estimated whole brain total distribution volume (VT), with relatively good repeatability between patients, and the equations below could also be used to relate the overall mean estimates back to the ideal total brain to free plasma minzasolmin (V’T) and unidirectional extraction Eu which can be calculated using the free fraction. The blood volume in the model was fixed at 5%. In this model, radiotracer which is free in tissue, non-specifically bound and specifically bound (i.e. to a target of interest) are lumped together in a single compartment, and so interchange between those states is assumed to be rapid.
# The arterial input function used represents the total concentration of parent radiotracer in plasma, with no correction for plasma protein binding and the fitted and observed K1 from this model is lower than the rate of uptake from the free plasma concentration (K’1):
# To calculate the Eu from the observed K1 from the model we then need to combine […]
# The partition coefficient between total brain and total plasma concentration was determined from the fitted K1 and k2 parameters: […]
# and the ratio of total concentration in brain to free concentration in plasma ( V’T) could be […]
# Supplemental Fig. 1. Example of HPLC chromatograms (radioactive trace, top; UV trace, bottom) obtained during HPLC analysis of [11C-N-CH3]UCB2713 dose. The time delay
# [2] = Plasma pharmacokinetics after single oral dose in TM0017; type: in vivo; settings: male, human, TM0017, single oral 360 mg
# Plasma free fraction = type: in vitro ADME; settings: human plasma
# [3] = set-up: method as in PMID 35959805; settings: cited from earlier work
# Caco-2 cell system = system: Caco-2 cell system; set-up: method as in PMID 35959805; settings: Caco-2, in vitro; cited from earlier work
# ASYN pathology = settings: mouse model of PD, once-daily over 3 months; cited from earlier work
# [4] = Safety and tolerability in TM0017 (TEAEs, ECG, vital signs)
# [5] = Radio-HPLC metabolite analysis of mouse brain homogenate and plasma after IV radiotracer; type: in vivo, male C57 black 6 mice; settings: for % Parent Plasma / % Parent Brain: individual mice; for % Parent Brain: brain homogenate; for share of total brain activity corresponding to the parent / share of total plasma activity corresponding to the parent: approximate
# Experimental: In this preclinical study, two radiolabeling positions were investigated, [^11C-N-CH3]UCB2713 and [^11C]carbonyl UCB2713 ([^11C-CO]UCB2713). The radiolabeling of [^11C-N-CH3]UCB2713 was performed by N-methylation of the corresponding desmethyl precursor with [^11C]methyl iodide and radiolabeling of [^11C-CO]UCB2713 was performed by [^11C]aminocarbonylation of the iodo precursor and the amino precursor with [^11C]carbon monoxide in the presence of Pd(π-cinnamyl) chloride dimer and Xantphos (4,5-bis(diphenylphosphino)-9,9-dimethylxanthene) (Fig. 1b). For additional information on the precursor molecules and radiolabeling methods, see the electronic supplement. A high-performance liquid chromatography (HPLC) metabolite analysis method was developed to quantify the ratio of [^11C-N-CH3]UCB2713 and other unidentified metabolites in plasma and brain homogenate samples. Relative quantification was used to provide the ratio of parent to metabolite in these samples.
# Preclinical experiments were conducted on male C57 black 6 mice (N = 10). In vivo experiments were performed on 3 mice and included a PET scan of the brain; ex vivo experiments were performed on all 10 mice and included samples of brain homogenate.
# [11C]UCB2713 in vivo/ex vivo Evaluation
# Administration of Radioligand and Collecting Samples
# Each mouse received an intravenous (IV) bolus injection of [11C]UCB2713 via the jugular vein. The mean (standard deviation [SD]) mass of each radiotracer dose was 1.54 (± 1.03) µg; with a radioactive dose of 17.26 (± 10.88) MBq. At pre-defined time points (40, 60, and 90 min) post-administration of [11C]UCB2713, each mouse was euthanized by exsanguination, followed by cervical dislocation, with blood samples collected in heparin tubes and the brain dissected.
# Brain Sample Processing and Preparation of Sample for Analysis
# A sample of brain homogenate (1:1, brain:water) was assessed for radioactivity using a γ-counter. Brain homogenate was extracted with a ratio of 1:2 (homogenate:acetonitrile); a ratio of 1:1 was used for the first two animals. The mixture was vortexed for 3 min followed by centrifugation (12000 x g) for 5 min at room temperature. The extraction efficiency was […]
# Brain extraction efficiency = counts per minute (CPM) in supernatant (brain extract)/CPM in brain homogenate extracted
# To identify the parent-retention time based on the ultraviolet (UV) chromatogram, 20 µL of a solution containing UCB2713 was added to the supernatant (350 µL), followed by 350 µL of 50 mM ammonium formate (adjusted to pH 8), then 0.5 mL of the resulting solution was injected onto the high-performance liquid chromatography (HPLC) column.
# Two aliquots of this solution were counted to determine the HPLC recovery as follows:
# Recovery efficiency % = = i=1 ∙100 […]
# Where “CPM(aliq.)” is the radioactivity measured for the HPLC brain homogenate samples aliquot, “Valiq.” Is the volume of each aliquot , “CPM fi” is the count per minute for fraction “i” and ∑ 30 is the sum of 30 fractions.
# Mouse blood samples were centrifuged at 7500 x g for 3 min at 4 °C and plasma was extracted with a ratio of 1:1 (plasma:acetonitrile). The plasma extraction efficiency was […]
# Plasma extraction efficiency = CPM in supernatant (plasma extract)/CPM in plasma […]
# Samples were prepared as described above for the brain, and two aliquots of solution were counted to determine the HPLC column recovery.
# HPLC Procedure and Data Analysis
# The HPLC system used a pump, degasser, UV-Vis/Diode Array Detector, and fraction collector. HPLC conditions used were 55% acetonitrile and 45% 100 mM ammonium formate (Method 1), or 48% acetonitrile and 52% 100 mM ammonium formate (adjusted to pH 8; Method 2) as the mobile phase at 5 mL/min and an Agilent XDB-C18 semi-preparative […]
# (§1) column (5 micron, 250 x 9.4 mm; Method 2); 30 sample fractions (Method 1) and 36 sample fractions (Method 2) were collected over either a 10- or 12-min run.
# A radio-chromatogram was reconstructed from the HPLC fractions collected and the […]
# [6] = PET-CT imaging of the mouse brain (time-activity curve, SUV); type: in vivo, male C57 black 6 mice; settings: at 60 min
# Experimental: Preclinical experiments were conducted on male C57 black 6 mice (N = 10). In vivo experiments were performed on 3 mice and included a PET scan of the brain; ex vivo experiments were performed on all 10 mice and included samples of brain homogenate. […]
# as §1
# A radio-chromatogram was reconstructed from the HPLC fractions collected and the percent of unchanged [11C]UCB2713 was calculated:
# [11C]UCB2713 parent fraction = i=n i
# Where “cCPM fi” is the radioactivity measured for the HPLC fraction, corrected for the background radioactivity. “n” is first and “m” the last HPLC fraction containing the parent compound (1 ≤ n, m ≤ 30 or 36 [where 30 or 36 are the total number of fractions collected]).
# PET-Computed Tomography (CT) Scanning and Image Reconstruction
# Three mice were euthanized at the 90 min time point following radioligand injection. Prior to euthanization, these mice were scanned by PET-CT. A dynamic PET scan (Siemens Inveon DPET with docked multi-modality CT scanner) was acquired for each anesthetized mouse following IV administration of [11C]UCB2713. PET images were acquired in list mode and reconstructed with increasing time frames over the duration of the scan to characterize radiotracer kinetics. […]
# [7] = set-up: method as in PMID 35959805; settings: UP0030 study participants, 2 h post dose; cited from earlier work
# [8] = background statement, no reference given; cited from earlier work
# [9] = UP0030, 90–450 mg single ascending dose
# [10] = TM0017, N = 4, single oral dose 360 mg
# [11] = mouse, 40 min post-administration
structure (smiles),measurement,setting,value
"CCCC[C@H](Cc1c[nH]c2ccccc12)NC(=O)c1cnc(N2CCN(C)CC2)s1 [minzasolmin, N-[(1R)-1-(1H-indol-3-ylmethyl)pentyl]-2-(4-methylpiperazin-1-yl)thiazole-5-carboxamide]",Kp,"[1]; male, human, brain/plasma, intravenous, steady-state, from VT, read-out: Kp (total brain to total plasma concentration, partition coefficient)",~0.5
same,maximum projected human total brain concentration,"[1]; minzasolmin 360 mg/day dose, with plasma concentrations of UP0077",up to 1273 ng/mL
same,AUC,[2]; read-out: AUC GeoMean (time zero to infinity),13200 ng·h/mL
same,Cmax,[2]; read-out: Cmax GeoMean,1580 ng/mL
same,half-life,[2]; read-out: apparent terminal elimination half-life (GeoMean) (converted),11.4 h
same,Tmax,[2]; read-out: tmax Median,2 h
same,fraction unbound,Plasma free fraction,~0.025
same,AUC GeoMean (time zero to infinity),[3]; [9],3225 to 17040 ng·h/mL
same,Cmax GeoMean,[3]; [9],374 to 1806 ng/mL
same,tmax Median,[3]; [9],1.5 to 2 h
same,"apparent terminal elimination half-life, GeoMean range",[3]; previous phase 1/1b studies,9.3 to 13.1 h
same,permeability,Caco-2 cell system,high permeability
same,tolerability,ASYN pathology,well-tolerated
same,Any TEAEs,[4]; [10],3 (75) n (%)
same,Deaths,[4]; [10],0 n (%)
same,Discontinuations due to TEAEs,[4]; [10],0 n (%)
same,Drug-related TEAEs,[4]; [10],0 n (%)
same,Serious TEAEs,[4]; [10],0 n (%)
same,Severe TEAEs,[4]; [10],0 n (%)
same,TEAEs of special interest,[4]; [10],0 n (%)
same,"ECG parameters, vital signs, laboratory parameters","[4]; TM0017, healthy male participants","No clinically relevant findings in ECG parameters or vital sign measurements; also recorded: no clinically relevant findings in laboratory parameters, vital signs, or ECG recordings"
same,participants reporting TEAEs,"[4]; TM0017 overall, three out of four participants",75%
CCCC[C@@H](Cc1c[nH]c2ccccc12)NC(=O)c1cnc(N2CCN([11CH3])CC2)s1 [[^11C-N-CH3]UCB2713],% Parent Plasma,[5]; 40 min post IV administration,34.3% and 27.0% and 29.3% and 30.8%
same,% Parent Plasma,[5]; 60 min post IV administration,30.6% and 19.5% and 24.6%
same,% Parent Plasma,[5]; 90 min post IV administration,9.7% and 26.0% and 17.7%
same,% Parent Brain,[5]; 40 min post IV administration,62.0% and 61.1% and 56.0% and 58.2%
same,% Parent Brain,[5]; 60 min post IV administration,52.6% and 40.9% and 50.3%
same,% Parent Brain,[5]; 90 min post IV administration,34.7% and 29.7% and 22.1%
same,Kp at 40 min,"[5]; male, C57 black 6, mouse, brain/plasma, intravenous, 1.54 µg, mouse, 40 min, read-out: ratio (SD) of parent in the brain versus parent in plasma",0.77 ± 0.11
same,Kp at 60 min,"[5]; male, C57 black 6, mouse, brain/plasma, intravenous, 1.54 µg, mouse, 60 min, read-out: ratio (SD) of parent in the brain versus parent in plasma",0.73 ± 0.06
same,Kp at 90 min,"[5]; male, C57 black 6, mouse, brain/plasma, intravenous, 1.54 µg, mouse, 90 min, read-out: ratio (SD) of parent in the brain versus parent in plasma",0.79 ± 0.69
same,share of total brain activity corresponding to the parent,[5]; [11],approximately 60%
same,share of total plasma activity corresponding to the parent,[5]; [11],approximately 30%
same,share of total brain activity corresponding to the parent,"[5]; mouse, 90 min",approximately 30%
same,share of total plasma activity corresponding to the parent,"[5]; mouse, 90 min",~20%
same,polar metabolites in mouse brain,[5]; radio-HPLC column eluent front ~1.5-2 min,significant contribution of brain activity from polar metabolites
same,"standard uptake volume (SUV), whole brain",[6],~ 0.2
CCCC[C@H](Cc1c[nH]c2ccccc12)NC(=O)c1cnc(N2CC[N+](C)([O-])CC2)s1 [N-oxide],"concentration in CSF, times lower than the parent minzasolmin concentration",[7],~ 20 times
CCCCC(Cc1c[nH]c2ccccc12)NC(=O)c1cnc(N2CCN(C)CC2)s1 (stereo not drawn) [UCB2713],rate of metabolism compared with the other enantiomer,[8],higher rate of metabolism
